Measurements taken from patent publication US7417062B2, “Substituted arylamides” (ChemoCentryx, Inc., priority 2004, dated 2008).

Molecular target: T1, CCXCKR2 receptor (Homo sapiens, UniProt P25106)
T1 construct: host or cells: MCF-7 (endogenous) and/or MDA-MB-435S transfected with hRDC1 in pcDNA3.1(+)
Experiment: Displacement of 125I-labeled SDF-1 from the CCXCKR2 receptor (radioligand binding, determination of IC50 values)
Conditions: MCF-7 and/or MDA-MB-435S cells expressing CCXCKR2; 125I SDF-1; 3 hr at 4° C.; read-out: Activity (ability to displace 125I SDF-1 from CCXCKR2)
Description: The ability of the compounds to displace the labeled chemokine from the CCXCKR2 receptor sites at multiple concentrations was then determined with the screening process.
Compounds that were deemed effective modulators were able to displace at least 50% of the SDF-1 from the CCXCKR2 receptor at concentrations at or below 10 micromolar (μM) and more preferably at concentrations at or below 2 micromolar. At present, especially preferred compounds can displace at least 50% of the SDF-1 from the CCXCKR2 receptor at concentrations at or below 500 nM. Exemplary compounds that met these criteria are reproduced in Table B below. All compounds were prepared as described in the Examples above, or by related methods substituting readily available starting materials.
Reagents and Cells. ^125I-labeled SDF-1 was purchased from Perkin-Elmer Life Sciences, Inc. (Boston, Mass.). The MCF-7 (adenocarcinoma; mammary gland) cell line was obtained from the American Type Culture Collection (Manassas, Va.) or and was cultured in DMEM (Mediatech, Herndon, Va.) supplemented with 10% fetal bovine serum (FBS) (HyClone Logan, Utah) and bovine insulin (0.01 mg/mL) (Sigma, St. Louis, Mo.) at 37° C. in a humidified incubator at a 5% CO2/air mixture. CCXCKR2 transfected MDA-MB-435S were produced as described below. MDA-MB-435S human breast cancer line, was purchased from ATCC, and cultured in DMEM/10% FBS medium. The complete coding sequence of the gene encoding CCXCKR2 (a.k.a.CXCR7, hRDC1), was isolated from MCF-7 cells using μMACs mRNA isolation kit (Miltenyi Biotec, Auburn, Calif.). DNA contamination was removed by DNase digestion via RNeasy columns (Qiagen, Inc., Valencia, Calif.) and cDNA was generated using GeneAmp RNA PCR Core Kit (Applied Biosystems, Foster City, Calif.). PCR of cDNA samples was performed using Taq PCR Master Mix kit (Qiagen, Inc.) and hRDC1 primers harboring 5′ and 3′ Not I sites (hRDC1F 5′-[…]-3′ (SEQ ID NO:1), hRDC1R 5′-[…]-3′ (SEQ ID NO:2)) Not I digested PCR product was ligated into Not I digested pcDNA3.1(+)(Invitrogen, Carlsbad, Calif.) and screened for orientation and sequence confirmed. Plasmid DNA was then isolated from overnight bacterial cultures by Maxiprep (Qiagen, Inc.). Plasmid DNA (10 μg) was added to MDA-MB-435s cells and cells were electroporated (0.22 kV, 960 uF) via Gene Pulser (Biorad laboratories, Hercules, Calif.). 48 hr post-electroporation, cells were transferred to selection medium (1000 ug/ml G418).
Binding Analysis. Target compounds were tested to determine their ability to bind with CCXCKR2 sites on MCF-7 and/or MDA-MB-435S cells. Efficiency-maximized radioligand binding using filtration protocols as described in Dairaghi D J, et al., HHV8-encoded vMIP-I selectively engages chemokine receptor CCR5. Agonist and antagonist profiles of viral chemokines., J. Biol. Chem. 1999 Jul. 30; 274(31): 21569-74 and Gosling J, et al., Cutting edge: identification of a novel chemokine receptor that binds dendritic cell-and T cell-active chemokines including ELC, SLC, and TECK., J. Immunol. 2000 Mar. 15; 164(6):2851-6 was used.
In these assays, MCF-7 and/or MDA-MB-435S cells were interrogated with the target compounds and the ability of these compounds to displace ^125I radiolabeled SDF-1 was assessed using the protocol described in Dairaghi and Gosling. The target compounds were added to the plate to the indicated concentration and were then incubated with cells followed by the addition of radiolabeled chemokine (^125I SDF-1) for 3 hr at 4° C. in the following binding medium (25 mM HEPES, 140 mM NaCl, 1 mM CaCl2, 5 mM MgCl2 and 0.2% bovine serum albumin, adjusted to pH 7.1). All assays were then incubated for 3 hrs at 4° C. with gentle agitation. Following incubation in all binding assays, reactions were aspirated onto PEI-treated GF/B glass filters (Packard) using a cell harvester (Packard) and washed twice (25 mM HEPES, 500 mM NaCl, 1 mM CaCl2, 5 mM MgCl2, adjusted to pH 7.1). […]

T1 sequence (P25106 whole entry): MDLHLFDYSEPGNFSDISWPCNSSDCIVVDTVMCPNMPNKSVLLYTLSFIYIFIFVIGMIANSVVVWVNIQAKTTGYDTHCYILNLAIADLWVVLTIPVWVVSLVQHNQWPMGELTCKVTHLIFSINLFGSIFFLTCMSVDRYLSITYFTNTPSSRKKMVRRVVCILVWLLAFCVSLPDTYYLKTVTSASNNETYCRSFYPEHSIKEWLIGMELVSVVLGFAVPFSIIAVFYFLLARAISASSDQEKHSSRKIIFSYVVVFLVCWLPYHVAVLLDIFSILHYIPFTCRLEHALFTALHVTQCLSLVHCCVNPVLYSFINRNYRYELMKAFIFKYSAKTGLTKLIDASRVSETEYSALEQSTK

SMILES | IC50
COc1ccc(C(=O)N(C[C@@H]2CCCN2C(C)C)c2cccc(-c3ccccc3)c2)cc1OC [Example 23, N-Biphenyl-3-yl-(S)—N-(1-isopropyl-pyrrolidin-2-ylmethyl)-3,4-dimethoxy-benzamide] | < 500 nM
COc1cc(C(=O)N(CCC2CCCN2C)Cc2ccc3c(c2)OCCO3)cc(OC)c1OC (centres unmarked) [Example 9, N-(2,3-Dihydro-benzo[1,4]dioxin-6-ylmethyl)-3,4,5-trimethoxy-N-[2-(1-methyl-pyrrolidin-2-yl)-ethyl]-benzamide] | < 500 nM
COc1ccc(C(=O)N(C[C@@H]2CCCN2CC2CC2)c2cccc(-c3ccc(F)c(Cl)c3)c2)cc1OC [Example 38, N-(3′-Chloro-4′-fluoro-biphenyl-3-yl)-(S)—N-(1-cyclopropylmethyl-pyrrolidin-2-ylmethyl)-3,4-dimethoxy-benzamide] | < 10000 nM
COc1ccc(C(=O)N(Cc2cc3ccccc3s2)C[C@@H]2CCCN2)cc1OC [Example 29, N-Benzo[b]thiophene-2-ylmethyl-3,4-dimethoxy-N—(S)-pyrrolidin-2-ylmethyl-benzamide] | < 2000 nM
COc1ccc(C(=O)N(C[C@@H]2CCCN2CCO)c2cccc(-c3ccccc3)c2)cc1OC [Example 22, N-Biphenyl-3-yl-(S)—N[1-(2-hydroxy-ethyl)-pyrrolidin-2ylmethyl]-3,4-dimethoxy-benzamide] | < 500 nM
COc1cc(C(=O)N(Cc2cc3cc(Cl)ccc3o2)C[C@@H]2CCCN2)ccc1OC(F)F | < 500 nM
COc1ccc(C(=O)N(C[C@@H]2CCCN2CC2CCCCC2)c2cccc(-n3cccn3)c2)cc1OC [Example 75, N-((S)-1-Cyclohexylmethyl-pyrrolidin-2-ylmethyl)-3,4-dimethoxy-N-(3-pyrazol-1-yl-phenyl)-benzamide] | < 10000 nM
COc1ccc(C(=O)N(C[C@@H]2CCCN2CC2CCCCC2)c2ccc(-c3ccccc3)cc2)cc1OC | < 10000 nM
COc1cc(C(=O)N(CCC2CCCN2C)Cc2cc3ccccc3o2)cc(OC)c1OC (centres unmarked) [Example 7, N-Benzofuran-2-ylmethyl-3,4,5-trimethoxy-N-[2-(1-methyl-pyrrolidin-2-yl)-ethyl]-benzamide] | < 500 nM
COc1ccc(C(=O)N(Cc2cc3ccccc3s2)C[C@@H]2CCCN2CC2CCCCC2)cc1OC [Example 30, N-Benzo[b]thiophen-2-yl methyl-(S)—N-(1-cyclohexylmethyl-pyrrolidin-2-ylmethyl)-3,4-dimethoxy-benzamide] | < 500 nM
COc1cc(C(=O)N(CCCN2CCCCC2C)Cc2ncc(-c3ccccc3)s2)cc(OC)c1OC (centres unmarked) [Example 19, 3,4,5-Trimethoxy-N-[3-(2-methyl-piperidin-1-yl)-propyl]-N-(5-phenyl-thiazol-2-ylmethyl)-benzamide] | < 2000 nM
COc1cc(C(=O)N(CCC2CCCN2C)CC2=C(Cl)c3cc(F)ccc3OC2)cc(OC)c1OC (centres unmarked) | < 500 nM

More lines, now with the values ahead:

IC50 | SMILES
< 500 nM | COc1ccc(C(=O)N(Cc2ccc3ccccc3c2)C[C@@H]2CCCN2CC2CC=CCC2)cc1OC (some centres unmarked) [Example 1a]
< 500 nM | COc1cc(C(=O)N(CCCN2CCCCC2C)Cc2ccc3ccccc3c2)cc(OC)c1OC (centres unmarked) [Example 18]
< 500 nM | COc1cc(C(=O)N(Cc2cnc3ccccc3n2)C[C@@H]2C[C@@H]3CCCC[C@@H]3N2)cc2c1OC(C)(C)O2 [Example 68, 7-Methoxy-2,2-dimethyl-benzo[1,3]dioxole-5-carboxylic acid [(2S,3aS,7aS)-1-(octahydro-indol-2-yl)methyl]-quinoxalin-2-ylmethyl-amide]
< 500 nM | COc1cc(C(=O)N(Cc2ccc3ccccc3n2)C[C@@H]2CCCN2C2CCC2)cc2c1OC(C)(C)O2 [Example 43, 7-Methoxy-2,2-dimethyl-benzo[1,3]dioxole-5-carboxylic acid ((S)-1-cyclobutyl-pyrrolidin-2-ylmethyl)-quinolin-2-ylmethyl-amide]
< 2000 nM | COc1cc(C(=O)N(Cc2cc3ccccc3c[n+]2[O-])C[C@@H]2C[C@@H]3CCCC[C@@H]3N2)cc2c1OC(C)(C)O2 [Example 65, 7-Methoxy-2,2-dimethyl-benzo[1,3]dioxole-5-carboxylic acid [(2S,3aS,7aS)-1-(octahydro-indol-2-yl)methyl]-(2-oxy-isoquinolin-3-ylmethyl)-amide]
< 500 nM | COc1cc(C(=O)N(Cc2ccc3ccccc3n2)C[C@@H]2CCCN2CC2CNC2)cc2c1OC(C)(C)O2 [Example 44, 7-Methoxy-2,2-dimethyl-benzo[1,3]dioxole-5-carboxylic acid ((S)-1-azetidin-3-ylmethyl-pyrrolidin-2-ylmethyl)-quinolin-2-ylmethyl-amide]
< 500 nM | COc1ccc(C(=O)N(Cc2nc3ccccc3s2)C[C@@H]2CCCN2CCO)cc1OC [Example 26, N-Benzothiazol-2-yl methyl-(S)—N-[1-(2-hydroxy-ethyl)-pyrrolidin-2-ylmethyl]-3,4-dimethoxy-benzamide]
< 500 nM | COc1cc(C(=O)N(Cc2ccc3ccccc3n2)CC2CN(C)C2)cc2c1OC(C)(C)O2 [Example 49, 7-Methoxy-2,2-dimethyl-benzo[1,3]dioxole-5-carboxylic acid (1-methyl-azetidin-3-ylmethyl)-quinolin-2-ylmethyl-amide]
< 500 nM | COc1cc(C(=O)N(Cc2nc(-c3ccccc3)c(C(F)(F)F)s2)C[C@@H]2C[C@@H]3CCCC[C@@H]3N2)cc2c1OC(C)(C)O2 [Example 77, 7-Methoxy-2,2-dimethyl-benzo[1,3]dioxole-5-carboxylic acid [(2S,3aS,7aS)-1-(octahydro-indol-2-yl)methyl]-(4-phenyl-5-trifluoromethyl-thiazol-2-ylmethyl)-amide]
< 500 nM | COc1ccc(C(=O)N(Cc2nc3ccccc3s2)C[C@@H]2CCCN2C(C)C)cc1OC [Example 28, N-Benzothiazol-2-yl methyl-(S)—N-(1-isopropyl-pyrrolidin-2-ylmethyl)-3,4-dimethoxy-benzamide]
< 2000 nM | COc1cc(C(=O)N(Cc2cc3ccccc3nn2)C[C@@H]2CCCN2C2CCC2)cc2c1OC(C)(C)O2 [Example 74, 7-Methoxy-2,2-dimethyl-benzo[1,3]dioxole-5-carboxylic acid cinnolin-3-ylmethyl-((S)-1-cyclobutyl-pyrrolidin-2-ylmethyl)-amide]
< 2000 nM | COc1cc(C(=O)N(Cc2cnc3ccccc3c2)C[C@@H]2C[C@@H]3CCCC[C@@H]3N2)cc2c1OC(C)(C)O2
< 2000 nM | COc1cc(C(=O)N(CCC2CCCN2C)Cc2cccc3ccccc23)cc(OC)c1OC (centres unmarked) [Example 6, 3,4,5-Trimethoxy-N[2-(1-methyl-pyrrolidin-2-yl)-ethyl]-N-naphthalen-1-ylmethyl-benzamide]
< 500 nM | COc1cc(C(=O)N(Cc2cc3ccccc3s2)C[C@@H]2C[C@@H]3CCCC[C@@H]3N2)cc2c1OC(C)(C)O2 [Example 61, 7-Methoxy-2,2-dimethyl-benzo[1,3]dioxole-5-carboxylic acid benzo[b]thiophen-2-ylmethyl-[(2S,3aS,7aS)-1-(octahydro-indol-2-yl)methyl]-amide]
